Tests used:
[1] = Extraction of base from butyraldehyde into equimolar aqueous H3PO3 (Example 5, Table A); format: physicochemical
Procedure: The following series of experiments were performed in order to determine the relationship of the pKa of a base to the effectiveness of the base to remain in the organic phase upon contact with an equimolar aqueous acid solution. In all cases the experiments were performed under nitrogen, unless otherwise specified.
Solutions were prepared by dissolving a quantity of acid or base in solvent so that the final concentration was equal to 0.1 moles/liter. The 1×10^-3 moles/liter solutions were prepared by taking an aliquot of the 0.1 moles/liter solution and diluting to the specified concentration. The 1×10^-5 moles/liter solutions were prepared in the same manner as the 1×10^-3 moles/liter solution with the modification of using an aliquot of the 1×10^-3 moles/liter solution in place of the 0.1 moles/liter solution.
In each extraction experiment, 5 milliliters of base solution in butyraldehyde was added to a clean, dry vial. To this vial was added 5 milliliters of equimolar H3 PO3 solution. The resulting mixture was rapidly shaken for several minutes and then allowed to phase separate. A 1 milliliter aliquot of the aqueous layer was then transferred to a clean, dry vial. To this vial was added 1 milliliter of pH 7 sodium/potassium phosphate buffer and 0.1 milliliter of Tergitol® 15-S-9 surfactant. The solution was shaken vigorously, and an aliquot was analyzed by high performance liquid chromatography for base content. The amount of base was then compared with a dichloromethane solution at the initial concentration. The partition coefficients calculated are for partitioning of the base from the organic phase to the water phase and is defined as K=amount of base in the water phase/amount of base in the organic phase.

[2] = Stability of Ligand F in rhodium-containing butyraldehyde solution by HPLC (Examples 2-4)
[3] = Partition of hydroxy butyl phosphonic acid between butyraldehyde and water (Example 1); format: physicochemical
Procedure: Into a glass vessel was added a stock solution of 536 parts per million of hydroxy butyl phosphonic acid in butyraldehyde. This solution was contacted with water in a weight ratio of 1.18:1 grams water to grams aldehyde/acid stock solution. The aldehyde and water phase were contacted thoroughly to allow the separation of acid between the organic and the aqueous layer to reach equilibrium. The aldehyde phase was analyzed for hydroxy butyl phosphonic acid by ion chromatography after contact with the water giving 52.3 parts per million of hydroxy butyl phosphonic acid. The water phase was also analyzed by ion chromatography for the acid. The water phase contained 414 parts per million of hydroxy butyl phosphonic acid. The partition coefficient between the water and the butyraldehyde phase was 414/52.3 or 7.92.

[4] = base 1 × 10^-3 moles/liter in butyraldehyde, H3PO3 1 × 10^-3 moles/liter
[5] = base 1 × 10^-5 moles/liter in butyraldehyde, H3PO3 1 × 10^-5 moles/liter
[6] = 536 ppm stock in butyraldehyde, 1.18:1 grams water to grams aldehyde/acid stock, ion chromatography

K (amount of base in the water phase/amount of base in the organic phase) [1, 4] | K (amount of base in the water phase/amount of base in the organic phase) [1, 5] | Molecule | further results
0.08 | 0.00 | c1ccc2[nH]nnc2c1 [benzotriazole] | 
0.43 | 1.20 | c1ccc2ncccc2c1 [quinoline] | 

The remaining lines, values behind:

Molecule | K (amount of base in the water phase/amount of base in the organic phase) [1, 4] | K (amount of base in the water phase/amount of base in the organic phase) [1, 5] | further results
O=C1CCCN1Cc1ccccc1 [1-benzyl-2-pyrrolidinone] | 0.02 | 0.00 | 
CC(C)(C)c1cc(-c2cc(C(C)(C)C)cc(C(C)(C)C)c2Op2oc3ccccc3c3ccccc3o2)c(Op2oc3ccccc3c3ccccc3o2)c(C(C)(C)C)c1 [Ligand F] |  |  | concentration of Ligand F after 24 hours ([2]; 0.017 grams H3PO3 added to 12 gram solution, decreased from 0.39, 24 hours): 0.12 percent by weight; concentration of Ligand F after 72 hours ([2]; 0.017 grams H3PO3 added to 12 gram solution, initially 0.39, 72 hours): 0.04 percent by weight; change in concentration of Ligand F ([2]; after either 24 or 72 hours, 200 ppm rhodium, 0.39 wt% Ligand F in butyraldehyde, no added acid or benzimidazole): No change in the concentration
hydroxy butyl phosphonic acid |  |  | hydroxy butyl phosphonic acid in aldehyde phase after contact with water [3, 6]: 52.3 parts per million; hydroxy butyl phosphonic acid in water phase [3, 6]: 414 parts per million; partition coefficient between the water and the butyraldehyde phase ([3]; water/butyraldehyde, 414/52.3): 7.92
